Assay results from patent US12404285B2, “KRAS G12D proteolysis targeting chimeras” (PAQ Therapeutics Inc., priority 2022, dated 2025).

Key:
KRAS G12D [1] = biological target: T1, KRAS G12D (Homo sapiens, UniProt P01116, G12D); settings: cited from earlier work
[2] = test system: tumor models harboring KRAS G12D mutations; settings: cited from earlier work
KRAS G12D [3] = biological target: T1, KRAS G12D; settings: switch II pocket of KRAS G12D; noncovalent; cited from earlier work
[4] = biological target: T2, KRAS (G12D)-HiBit in AsPc-1-KRAS (G12D)-HiBit-KI cell (Homo sapiens, UniProt P01116, G12D); test: G12D HiBit assay; type: cell-based; settings: 24 hours compound treatment, absolute DC50, read-out: Average PHA DC50
T2 construct: host or cells: AsPc-1-KRAS (G12D)-HiBit-KI cells (knock-in line)
How it was run: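 Degradation of endogenous HiBiT-tagged KRAS G12D in AsPc-1 knock-in cells read after 24 h compound exposure (0.015-300 nM, 3-fold steps) by Nano-Glo HiBiT lytic luminescence. Signal normalised to DMSO-only cells; absolute DC50 derived by curve fitting.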

[5] = biological target: T3, KRAS in AGS cells (KRAS G12D mutant cell line) or LS180 cells (KRAS G12D mutant cell line) (Homo sapiens, UniProt P01116, G12D); test: KRAS Western Blot (WB) assay; type: cell-based; settings: KRAS degradation, 24 hours incubation, normalized to β-actin
T3 construct: CRL-187 (LS180) (so in the source); host or cells: AGS or LS180 cells
How it was run: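 AGS or LS180 (KRAS G12D) cells treated 24 h with compound; lysates run on SDS-PAGE and immunoblotted for KRAS with β-actin loading control. Fluorescent secondary detection; KRAS bands quantified, normalized to β-actin, giving DC50.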

KRAS G12C = KRAS G12C (Homo sapiens, UniProt P01116, G12C); settings: homozygous and heterozygous tumor cells; cited from earlier work

| SMILES | DC50 [4] | DC50 [5] | also measured |
| --- | --- | --- | --- |
| C#Cc1c(F)ccc2cc(O)cc(-c3ncc4c(N5CC6CCC(C5)N6)nc(OC[C@@]56CCCN5C[C@H](F)C6)nc4c3F)c12 [MRTX1133] | – | – | activity in cellular assays (KRAS G12D [1]): low nanomolar; in vivo efficacy [2]: in vivo efficacy; binding affinity (KRAS G12D [3]): picomolar |
| C#Cc1c(F)ccc2cccc(-c3ncc4c(N5CC6CCC(C5)N6)nc(OC[C@@]56CCCN5[C@H](COC(=O)N5CCC(OCCCc7cccc8c7n(C)c(=O)n8C7CCC(=O)NC7=O)CC5)CC6)nc4c3F)c12 (stereo partly drawn) [Compound 031, [(3S,8S)-8-[[4-(3,8-diazabicyclo[3.2.1]octan-3-yl)-7-(8-ethynyl-7-fluoro-1-naphthyl)-8-fluoro-pyrido[4,3-d]pyrimidin-2-yl]oxymethyl]-1,2,3,5,6,7-hexahydropyrrolizin-3-yl]methyl 4-[3-[1-(2,6-dioxo-3-piperidyl)-3-methyl-2-oxo-benzimidazol-4-yl]propoxy]piperidine-1-carboxylate] | < 100 nM | A (DC50 less than 1 μM) | – |
| C=C(F)C(=O)N1CCN(c2nc(OC[C@@H]3CCCN3CCCOCCC(=O)N[C@H](C(=O)N3C[C@H](O)C[C@H]3C(=O)NCc3ccc(-c4scnc4C)cc3)C(C)(C)C)nc3c2CCN(c2cccc4cccc(Cl)c24)C3)C[C@@H]1CC#N [LC-2] | – | – | degradation of KRAS G12C (KRAS G12C): can rapidly degrade KRAS G12C |
| C#Cc1c(F)ccc2cc(O)cc(-c3ncc4c(N5CC6CCC(C5)N6)nc(OC[C@@]56CCCN5[C@H](COC(=O)N5CCC(OCCCc7cccc8c7n(C)c(=O)n8C7CCC(=O)NC7=O)CC5)CC6)nc4c3F)c12 (stereo partly drawn) [Compound 032, [(3S,8S)-8-[[4-(3,8-diazabicyclo[3.2.1]octan-3-yl)-7-(8-ethynyl-7-fluoro-3-hydroxy-1-naphthyl)-8-fluoro-pyrido[4,3-d]pyrimidin-2-yl]oxymethyl]-1,2,3,5,6,7-hexahydropyrrolizin-3-yl]methyl4-[3-[1-(2,6-dioxo-3-piperidyl)-3-methyl-2-oxo-benzimidazol-4-yl]propoxy]piperidine-1-carboxylate] | < 100 nM | A (DC50 less than 1 μM) | – |
| C#Cc1c(F)ccc2cc(O)cc(-c3ncc4c(N5CC6CCC(C5)N6)nc(OC[C@@]56CCCN5[C@H](COC(=O)N5CCC(OCC#Cc7cccc8c7n(C)c(=O)n8C7CCC(=O)NC7=O)CC5)CC6)nc4c3F)c12 (stereo partly drawn) [Compound 033, [(3S,8S)-8-[[4-(3,8-diazabicyclo[3.2.1]octan-3-yl)-7-(8-ethynyl-7-fluoro-3-hydroxy-1-naphthyl)-8-fluoro-pyrido[4,3-d]pyrimidin-2-yl]oxymethyl]-1,2,3,5,6,7-hexahydropyrrolizin-3-yl]methyl 4-[3-[1-(2,6-dioxo-3-piperidyl)-3-methyl-2-oxo-benzimidazol-4-yl]prop-2-ynoxy]piperidine-1-carboxylate] | < 100 nM | A (DC50 less than 1 μM) | – |
| C#Cc1c(F)ccc2cccc(-c3ncc4c(N5CC6CCC(C5)N6)nc(OC[C@@]56CCCN5[C@H](COC(=O)NCCCCCCCCc5ccc7c(c5)n(C)c(=O)n7C5CCC(=O)NC5=O)CC6)nc4c3F)c12 (stereo partly drawn) [Compound 029, [(3S,8S)-8-[[4-(3, example 208-diazabicyclo[3.2.1]octan-3-yl)-7-(8-ethynyl-7-fluoro-1-naphthyl)-8-fluoro-pyrido[4,3-d]pyrimidin-2-yl]oxymethyl]-1,2,3,5,6,7-hexahydropyrrolizin-3-yl]methyl N-[8-[1-(2,6-dioxo-3-piperidyl)-3-methyl-2-oxo-benzimidazol-5-yl]octyl]carbamate] | – | A (DC50 less than 1 μM) | – |
